A short description of the series: in vitro. The note with it: human, hela cells, % viability.
Usually viability stands for a read-out of living cells in per cent, often relative to untreated cells. For the compound `Cn1c(=O)c2c(nc(NCCN)n2C)n(C)c1=O` [CBK268680], the viability at 28.5 h, 10 µM was 107%.
To `O=C(N1CCCCCC1)N1CCN(S(=O)(=O)N2CCOCC2)CC1` [CBK268681] belongs 105%; to `COC(=O)c1ccccc1NC(=O)CSc1nc(C)cc(C(F)(F)F)n1` [CBK268682], 89.1%; to `CC(=O)Nc1ccc(S(=O)(=O)NC2(C(F)(F)F)C(=O)Nc3c2c(=O)[nH]c(=S)n3C2CCCCC2)cc1` (centres unmarked) [CBK268683], 97.2%.
As to `O=C1c2cccc3cccc(c23)C(=O)N1CCCSc1nnc(-c2ccncc2)n1-c1ccccc1` [CBK268684], the viability at 28.5 h, 10 µM is 91%.
As for `O=C(CSc1ccc(F)cc1)Nc1cc(Cl)ccc1O` [CBK268685], the figure is 87.5%; as for `Nc1nc2c(nc(SCCc3ccccc3)n2C2OC(CO)C(O)C2O)c(=O)[nH]1` (centres unmarked) [CBK268686], 101%.
As for `Nc1nc(SCc2cccc([N+](=O)[O-])c2)n[nH]1` [CBK268688], the figure is 105%; as for `Cc1ccc(-n2c(SCC(=O)Nc3sc4c(c3C#N)CCCC4)nnc2-c2ccccc2O)c(C)c1` [CBK268692], 77.9%; as for `CC1CC(C)CN(CCCNS(=O)(=O)c2ccc3c(c2)oc(=O)n3C)C1` (centres unmarked) [CBK268695], 104%.
To `O=C(CSc1cccc2ccccc12)Nc1ccc([N+](=O)[O-])cc1O` [CBK268696] belongs 115%; to `Cc1nn(C(C)C(=O)Nc2cc(C(F)(F)F)ccc2Cl)c(C)c1[N+](=O)[O-]` (centres unmarked) [CBK268697], 88.5%.
`O=C(CSc1nnc(-c2ccc(Cl)cc2Cl)o1)c1cc2ccccc2oc1=O` [CBK268698]: the viability at 28.5 h, 10 µM was 88.7%.
As for `O=C(O)c1ccccc1-c1ccc(-c2cc(C(=O)O)c3cc(Cl)ccc3n2)o1` [CBK268699], the figure is 91.1%; as for `Cc1cc(C(=O)Nc2cc(-c3nc4ncccc4o3)ccc2Cl)ccc1[N+](=O)[O-]` [CBK268700], 95.1%.
Turning to `Cc1cc(N2C(=O)CC(N3CCN(c4ccc(C(=O)c5cccs5)cc4)CC3)C2=O)no1` (centres unmarked) [CBK268701], the viability at 28.5 h, 10 µM was 84.4%.
As for `COC(=O)c1ccc(Cl)c(NC(=O)CSc2nnc(-c3ccncc3)[nH]2)c1` [CBK268702], the figure is 105%.
For `O=C(NCCCN1CCOCC1)c1ccc2nccnc2c1` [CBK268704], the viability at 28.5 h, 10 µM is 114%.
As for `O=C(Nc1cccc2ccccc12)C1CCC(C(=O)Nc2cccc3ccccc23)CC1` (centres unmarked) [CBK268706], the figure is 81.9%.
For `Cc1c(Nc2cnn(C34CC5CC(CC(CC(=O)O)(C5)C3)C4)c(=O)c2Cl)c(=O)n(-c2ccccc2)n1C` [CBK268707], the viability at 28.5 h, 10 µM stood at 89%.
For `O=C(CN(c1cc(Cl)ccc1Cl)S(=O)(=O)c1ccccc1)Nc1cccnc1` [CBK268708], the viability at 28.5 h, 10 µM worked out at 59.3%.
On to `O=S(=O)(/N=C(/Nc1nccs1)c1ccccc1)c1cccs1` [CBK268709], for which the viability at 28.5 h, 10 µM was 83.8%.
Consider `CSc1ncc(Cl)c(C(=O)Nc2sc3c(c2C(=O)NCc2cccnc2)CCC3)n1` [CBK268710], for which the viability at 28.5 h, 10 µM was found to be 95.9%.
Consider `Cc1cc(C)c(NC(=O)CSc2nc(C)c(Cc3ccccc3)c(O)n2)c([N+](=O)[O-])c1` [CBK268715], for which the viability at 28.5 h, 10 µM came out at 86.8%.
Take `NC(=O)c1ccccc1NC(=O)C1CCC(C(=O)Nc2ccccc2C(N)=O)CC1` (centres unmarked) [CBK268716]: the viability at 28.5 h, 10 µM is 87.1%.
As for `Cc1ccccc1CNCCNCC(C)O` (centres unmarked) [CBK268718C], the figure is 95.9%.
To `Cc1ccc(C(C)C)c(OCC(=O)NS(=O)(=O)c2ccc(Br)cc2)c1` [CBK268719] belongs 101%; to `CCOc1cc(C)c(C(C)C)cc1S(=O)(=O)NCCN1CCOCC1` [CBK268727], 110%.
Regarding `O=C(O)CC(NC(=O)C(c1ccccc1)c1ccccc1)c1ccco1` (centres unmarked) [CBK268729], the viability at 28.5 h, 10 µM came to 109%.
`Cc1cc(-c2nnc(SCC(=O)N3CCCCC3)o2)no1` [CBK268731]: the viability at 28.5 h, 10 µM is 86.6%.
As for `CCOc1ccc2ccccc2c1CNCCc1ccc(S(N)(=O)=O)cc1` [CBK268732C], the viability at 28.5 h, 10 µM came out at 88.7%.
To `O=C1CC(N2CCC(c3nc4ccccc4o3)CC2)C(=O)N1Cc1cccs1` (centres unmarked) [CBK268735] belongs 104%; to `COc1cc(OC)cc(-c2nnc(SCc3cccc(C(=O)O)c3)[nH]2)c1` [CBK268736], 108%; to `O=C(Nc1ccc(NC(=O)c2ccco2)cc1)c1ccc(N2CCOCC2)c([N+](=O)[O-])c1` [CBK268739], 95.2%.
To `COc1c(Cl)cc(Cl)cc1C(=O)NC(=S)Nc1sc2c(c1C#N)CCCC2` [CBK268741] belongs 84.4%; to `OCC(CO)(CO)NCc1ccc(-c2ccccc2)cc1` [CBK268742C], 93.2%; to `Cc1ccc(-n2c(SCC(=O)Nc3ccccc3C#N)nnc2-c2cc(Br)ccc2O)c(C)c1` [CBK268743], 94.1%.
As to `N#C/C(=C/c1ccccc1OCc1cccc([N+](=O)[O-])c1)c1ccc(C(=O)O)cc1` [CBK268748], the viability at 28.5 h, 10 µM is 96.2%.
`Cn1c2ccccc2c2nnc(SCCCC(=O)c3ccc4c(c3)OCCO4)nc21` [CBK268750]: the viability at 28.5 h, 10 µM is 97.5%.
To `O=C(Cn1ncc2ccccc2c1=O)NNC(=S)Nc1ccc2c(c1)OCO2` [CBK268751] belongs 100%.
On to `O=C1CC(C(=O)Nc2ccccc2)NC(Nc2cc(Cl)cc(Cl)c2)=N1` (centres unmarked) [CBK268752], for which the viability at 28.5 h, 10 µM was 106%.
As for `CSc1nsc(SCC(=O)c2ccc(NC(C)=O)cc2)n1` [CBK268755], the figure is 82.3%; as for `O=C(NC(=S)Nc1cccc(-c2nc3ncccc3o2)c1)c1cc([N+](=O)[O-])ccc1N1CCOCC1` [CBK268756], 92.7%; as for `Cc1ccc(OC(C)C(=O)Nc2ccc(S(=O)(=O)Nc3cc(C)on3)cc2)cc1` (centres unmarked) [CBK268757], 89.6%.
To `CSc1nc(NN2C(=O)c3ccccc3C2=O)c2c3c(sc2n1)COC(C)(C)C3` [CBK268758] belongs 85.6%.
Regarding `CCCSc1nnc(NC(=O)c2nc(SC)ncc2Cl)s1` [CBK268759], the viability at 28.5 h, 10 µM was 95.2%.
For `CC(C)(Oc1ccc(Cl)cc1)C(=O)O/N=C(\N)c1ccc(I)cc1` [CBK268760], the viability at 28.5 h, 10 µM is 97.2%.
As for `CS(=O)(=O)Nc1cccc(C2=NN(S(=O)(=O)c3ccc(Cl)cc3)C(c3ccccc3F)C2)c1` (centres unmarked) [CBK268762], the figure is 114%; as for `CCOc1cc(S(=O)(=O)NCCCN2CCOCC2)c(C)cc1C` [CBK268764], 99%; as for `CSCCC(NS(=O)(=O)c1ccc(I)cc1)C(=O)O` (centres unmarked) [CBK268768], 98.6%.
Regarding `Cc1cc(C)cc(N(C(C)C(=O)Nc2ccccc2-c2ccccc2)S(C)(=O)=O)c1` (centres unmarked) [CBK268770], the viability at 28.5 h, 10 µM worked out at 101%.
As for `COC(=O)c1ccc(COc2nc3ccccc3nc2/C=C/c2cccc([N+](=O)[O-])c2)cc1` [CBK268776], the figure is 112%; as for `COc1ccc(COc2nc3c(c(=O)n(C)c(=O)n3C)n2Cc2ccc(Cl)c(Cl)c2)cc1` [CBK268779], 91.3%; as for `COc1ccc(N2CC(C(=O)Nc3ccc(C(=O)O)cc3)CC2=O)cc1` (centres unmarked) [CBK268782], 88%.
On to `CC(C)(C)C(=O)Nc1ccc(S(=O)(=O)NC2CCCCC2)cc1` [CBK268783], for which the viability at 28.5 h, 10 µM turned out to be 118%.
As for `Cc1ccc(NS(=O)(=O)c2cc(C(=O)Nc3ccc(S(=O)(=O)N4CCCC4)cc3)ccc2C)cc1` [CBK268784], the figure is 89.8%.
As for `O=C(NC(=S)Nc1cccc(-c2nc3ccccc3s2)c1)c1cc([N+](=O)[O-])ccc1N1CCOCC1` [CBK268789], the figure is 103%; as for `Cc1onc(-c2ccccc2Cl)c1C(=O)N(Cc1nc(-c2ccccc2)no1)C1CCCCC1` [CBK268790], 108%; as for `Cc1ccc(-n2c(SCC(=O)N3CCc4ccccc43)nnc2-c2ccccc2O)c(C)c1` [CBK268793], 108%.
As for `COc1ccccc1-c1noc(CCCC(=O)Nc2cccc(C(F)(F)F)c2)n1` [CBK268794], the viability at 28.5 h, 10 µM was found to be 96.3%.
As for `COc1ccc(CCNC(=O)c2nc3ncccn3n2)cc1OC` [CBK268795], the figure is 90.4%; as for `COC(=O)c1ccccc1NC(=O)C1CCCN(S(=O)(=O)c2cc(Cl)ccc2Cl)C1` (centres unmarked) [CBK268797], 101%.
For the compound `OCCN1CCN(c2nc3ccccc3nc2-c2ccccc2)CC1` [CBK268799C], the viability at 28.5 h, 10 µM came to 111%.
Turning to `O=C(CN1CCCC1)Nc1sc2c(c1C(=O)Nc1ccccc1)CCCC2` [CBK268800], the viability at 28.5 h, 10 µM worked out at 103%.
`CC(=O)Nc1ccc(S(=O)(=O)N2CCN(c3ccc([N+](=O)[O-])c(NC4C5CC6CC(C5)CC4C6)c3)CC2)cc1` (centres unmarked) [CBK268802]: the viability at 28.5 h, 10 µM turned out to be 90.5%.
As for `CCN(CC)CCn1c(=N)n(Cc2ccc(C(C)(C)C)cc2)c2ccccc21` [CBK268803B], the figure is 82.9%; as for `CN(C)c1nc(NCc2ccccc2)nc(SCC(=O)Nc2ccccc2)n1` [CBK268810], 88.9%; as for `O=C(COc1ccccc1[N+](=O)[O-])Nc1ccc(Cl)c(-c2nc3ncccc3o2)c1` [CBK268811], 88.8%.
With `Cc1nc(SCCC(=O)Nc2ccccc2C#N)nc2cc3c(cc12)CCC3` [CBK268812], the viability at 28.5 h, 10 µM came out at 90.2%.
To `NS(=O)(=O)c1ccc(NC(=S)NC(=O)c2cccc3c(Cl)cccc23)cc1` [CBK268814] belongs 99.5%.
As for `O=C(O)CCNS(=O)(=O)c1ccc(Cl)c(Cl)c1` [CBK268815], the figure is 112%; as for `Cc1cccc(-c2noc(CN(C(=O)c3ccc4c(c3)OCO4)C(C)C)n2)c1` [CBK268817], 98.1%; as for `O=C(O)CCN1CCN(S(=O)(=O)c2cccc([N+](=O)[O-])c2)CC1` [CBK268819], 89.7%.
As for `O=C(CSc1nnc(CN2CCOCC2)n1-c1ccc(Cl)cc1)N1c2ccccc2SC2C=CC=CC21` (centres unmarked) [CBK268820], the figure is 91.3%.

The values are drawn from paper PMC12040169 (PLOS Biology, 2025).
